Laboratory results taken from patent publication US7419780B2, “Methods and assays for screening protein targets” (The Trustees of Columbia University in the City of New York, priority 2000, dated 2008).

Experiments:
Type in all cases: cell-based, S. cerevisiae
Settings in all cases: 1 uM small molecule, difference to activity without small molecule, average of two trials
[1] = molecular target: T1, LexA (GSG)2eDHFR / B42 (GSG)rGR2 (UniProt P06536+P0ABQ4, C656G/F620S); experiment: β-galactosidase activity assay, strain V501Y
T1 construct: rat Glucocorticoid Receptor (aa 524-795) with point mutations; expressed in transfected cells; host or cells: S. cerevisiae FY250
T1 sequence (P0ABQ4 1-159): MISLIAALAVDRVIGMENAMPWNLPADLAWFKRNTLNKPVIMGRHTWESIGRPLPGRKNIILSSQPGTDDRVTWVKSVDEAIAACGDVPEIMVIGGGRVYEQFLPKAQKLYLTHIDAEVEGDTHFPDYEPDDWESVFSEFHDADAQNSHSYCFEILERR
T1 sequence (P06536 524-795 F620S/C656G limits assumed): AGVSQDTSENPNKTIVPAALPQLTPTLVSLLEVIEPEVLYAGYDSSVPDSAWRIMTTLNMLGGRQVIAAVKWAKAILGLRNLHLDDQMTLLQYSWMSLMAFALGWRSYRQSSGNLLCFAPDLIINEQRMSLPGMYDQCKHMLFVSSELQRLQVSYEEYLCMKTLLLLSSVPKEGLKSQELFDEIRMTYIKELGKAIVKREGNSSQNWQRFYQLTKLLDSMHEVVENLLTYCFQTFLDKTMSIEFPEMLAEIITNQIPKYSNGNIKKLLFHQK
Text: (§1) Table III explains the components of each strain. Each strain was constructed from the parent yeast strain FY250 and also contains the pMW106 plasmid, which has the LacZ reporter gene that is turned on only in when the LexA DNA binding domain and the B42 activation are brought in tot he vicinity of each other. We use several different strains because we use DHFR from two different species, mDHFR is from murine, while eDHFR is from E. coli. We are asl oable to switch the small moleculebinding domains. For example, the strain containing LexA-eDHFR with B42-rGH2 is a different strain and behaves differently from the strain containing LexA-rGR2 with B42-eDHFR. We also put in short 6 amino acid linkers between the two domains of our protein chimeras and thus these are different strain as well.
(§2) The results in Table IV are averages of two separate trials. Each strain was examined with small molecules and without small molecules. The absolute activity is given as the β-galactisidase activity […]. The average β-galactosidse activity for a strain without small molecule (i.e. the negative control) was about 100 β-galactosidase units.

[2] = molecular target: T2, LexA eDHFR / B42 (GSG)rGR2 (UniProt P06536+P0ABQ4, C656G/F620S); experiment: β-galactosidase activity assay, strain V494Y
T2 construct: rat Glucocorticoid Receptor (aa 524-795) with point mutations; expressed in transfected cells; host or cells: S. cerevisiae FY250
T2 sequence (P0ABQ4 1-159): T1 sequence (P0ABQ4 1-159)
T2 sequence (P06536 524-795 F620S/C656G limits assumed): T1 sequence (P06536 524-795 F620S/C656G limits assumed)
Text: as §1, §2

[3] = molecular target: T3, LexA (GSG)2rGR2 / B42 mDHFR (UniProt P00375+P06536, C656G/F620S); experiment: β-galactosidase activity assay, strain V508Y
T3 construct: expressed in transfected cells; host or cells: S. cerevisiae FY250 with pMW106 lacZ reporter
T3 sequence (P06536 524-795 F620S/C656G limits assumed): T1 sequence (P06536 524-795 F620S/C656G limits assumed)
T3 sequence (P00375 1-187): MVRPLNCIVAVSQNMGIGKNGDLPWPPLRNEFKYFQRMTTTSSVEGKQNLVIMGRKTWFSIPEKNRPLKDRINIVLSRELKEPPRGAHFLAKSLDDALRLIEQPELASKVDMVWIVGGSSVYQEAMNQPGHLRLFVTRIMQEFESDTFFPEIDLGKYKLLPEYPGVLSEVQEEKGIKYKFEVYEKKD
Text: as §1, §2

[4] = molecular target: T4, LexA rGR2 / B42 (GSG)2eDHFR (UniProt P06536+P0ABQ4, C656G/F620S); experiment: β-galactosidase activity assay, strain V509Y
T4 construct: expressed in transfected cells; host or cells: S. cerevisiae FY250 with pMW106 lacZ reporter
T4 sequence (P06536 524-795 F620S/C656G limits assumed): T1 sequence (P06536 524-795 F620S/C656G limits assumed)
T4 sequence (P0ABQ4 1-159): T1 sequence (P0ABQ4 1-159)
Text: as §1, §2

[5] = molecular target: T5, LexA (GSG)2mDHFR / B42 gly6rGR2 (UniProt P00375+P06536, C656G/F620S); experiment: β-galactosidase activity assay, strain V503Y
T5 construct: expressed in transfected cells; host or cells: S. cerevisiae FY250 with pMW106 lacZ reporter
T5 sequence (P00375 1-187): T3 sequence (P00375 1-187)
T5 sequence (P06536 524-795 F620S/C656G limits assumed): T1 sequence (P06536 524-795 F620S/C656G limits assumed)
Text: as §1, §2

[6] = molecular target: T6, LexA (GSG)2eDHFR / B42 rGR2 (UniProt P06536+P0ABQ4, C656G/F620S); experiment: β-galactosidase activity assay, strain V498Y
T6 construct: rat Glucocorticoid Receptor (aa 524-795) with point mutations; expressed in transfected cells; host or cells: S. cerevisiae FY250
T6 sequence (P0ABQ4 1-159): T1 sequence (P0ABQ4 1-159)
T6 sequence (P06536 524-795 F620S/C656G limits assumed): T1 sequence (P06536 524-795 F620S/C656G limits assumed)
Text: as §1, §2

[7] = molecular target: T7, LexA rGR2 / B42 (GSG)2mDHFR (UniProt P00375+P06536, C656G/F620S); experiment: β-galactosidase activity assay, strain V511Y
T7 construct: expressed in transfected cells; host or cells: S. cerevisiae FY250 with pMW106 lacZ reporter
T7 sequence (P06536 524-795 F620S/C656G limits assumed): T1 sequence (P06536 524-795 F620S/C656G limits assumed)
T7 sequence (P00375 1-187): T3 sequence (P00375 1-187)
Text: as §1, §2

[8] = molecular target: T8, LexA (GSG)2eDHFR / B42 gly6rGR2 (UniProt P06536+P0ABQ4, C656G/F620S); experiment: β-galactosidase activity assay, strain V499Y
T8 construct: rat Glucocorticoid Receptor (aa 524-795) with point mutations; expressed in transfected cells; host or cells: S. cerevisiae FY250
T8 sequence (P0ABQ4 1-159): T1 sequence (P0ABQ4 1-159)
T8 sequence (P06536 524-795 F620S/C656G limits assumed): T1 sequence (P06536 524-795 F620S/C656G limits assumed)
Text: as §1, §2

[9] = molecular target: T9, LexA mDHFR / B42 gly6rGR2 (UniProt P00375+P06536, C656G/F620S); experiment: β-galactosidase activity assay, strain V496Y
T9 construct: rat Glucocorticoid Receptor (aa 524-795) with point mutations; expressed in transfected cells; host or cells: S. cerevisiae FY250
T9 sequence (P00375 1-187): T3 sequence (P00375 1-187)
T9 sequence (P06536 524-795 F620S/C656G limits assumed): T1 sequence (P06536 524-795 F620S/C656G limits assumed)
Text: as §1, §2

LexA rGR2 / B42 mDHFR = molecular target: T10, LexA rGR2 / B42 mDHFR (UniProt P00375+P06536, C656G/F620S); experiment: β-galactosidase activity assay, strain V507Y
T10 construct: rat Glucocorticoid Receptor (aa 524-795) with point mutations; expressed in transfected cells; host or cells: S. cerevisiae FY250
T10 sequence (P06536 524-795 F620S/C656G limits assumed): T1 sequence (P06536 524-795 F620S/C656G limits assumed)
T10 sequence (P00375 1-187): T3 sequence (P00375 1-187)
Text: as §1, §2

C[C@@H]1C[C@H]2C3CCC4=CC(=O)C=C[C@]4(C)[C@@]3(F)[C@@H](O)C[C@]2(C)[C@@]1(O)C(=O)NCCSCCCCCCCCSCC[C@H](NC(=O)c1ccc(N(C)Cc2cnc3nc(N)nc(N)c3n2)cc1)C(=O)O (stereo partly shown) [D8M]
B-gal activity [1]: 6660 β-galactosidase units
B-gal activity [2]: 10568 β-galactosidase units
B-gal activity [3]: −5 β-galactosidase units
B-gal activity [4]: 2734 β-galactosidase units
B-gal activity [5]: 45 β-galactosidase units
B-gal activity [6]: 5442 β-galactosidase units
B-gal activity [7]: −129 β-galactosidase units
B-gal activity [8]: 7012 β-galactosidase units
B-gal activity [9]: −27 β-galactosidase units
B-gal activity (LexA rGR2 / B42 mDHFR): −6 β-galactosidase units
